Measured values as given in paper PMC2981568 (PLoS ONE, 2010).

Assays:
[1] = target: T1, MtbPRPPase (phosphoribosylpyrophosphate synthetase) (Mycobacterium tuberculosis, UniProt P9WKE3); test: biochemical
T1 construct: gene prs

[2] = target: T1, MtbPRPPase (phosphoribosylpyrophosphate synthetase); test: […]; inhibition curve and steady-state kinetics ([…] Pi; IC50 […] at […] Pi); format: biochemical
SEC = target: the molecule itself; test: SEC

Nc1nc2c(ncn2[C@@H]2O[C@H](COP(=O)(O)OP(=O)(O)O)[C@@H](O)[C@H]2O)c(=O)[nH]1 [GDP]
IC50 [1]: > 5000 µM

Nc1ncnc2c1ncn2[C@@H]1O[C@H](COP(=O)(O)OP(=O)(O)O)[C@@H](O)[C@H]1O [ADP]
IC50 [2]: 400 µM

B1: Mycobacterium tuberculosis phosphoribosylpyrophosphate synthetase (enzyme)
chain: MSHDWTDNRKNLMLFAGRAHPELAEQVAKELDVHVTSQDAREFANGEIFVRFHESVRGCDAFVLQSCPAPVNRWLMEQLIMIDALKRGSAKRITAVMPFYPYARQDKKHRGREPISARLIADLLKTAGADRIVTVDLHTDQIQGFFDGPVDHMRGQNLLTGYIRDNYPDGNMVVVSPDSGRVRIAEKWADALGGVPLAFIHKTRDPRVPNQVVSNRVVGDVAGRTCVLIDDMIDTGGTIAGAVALLHNDGAGDVIIAATHGVLSDPAAQRLASCGAREVIVTNTLPIGEDKRFPQLTVLSIAPLLASTIRAVFENGSVTGLFDGDA
notes: also called MtbPRPPase; M. tuberculosis PRPPase; not shown: His6, N-terminal, kept
stoichiometry N (SEC): 6
